Key:
Assay in all cases: relative viability (nuclei count vs DMSO), 5 days (fraction); higher = more cells survive
CUDC-101 + Tozasertib = compound: C#Cc1cccc(Nc2ncnc3cc(OC)c(OCCCCCCC(=O)NO)cc23)c1 [CUDC-101] + Cc1cc(Nc2cc(N3CCN(C)CC3)nc(Sc3ccc(NC(=O)C4CC4)cc3)n2)n[nH]1 [Tozasertib] (partner 0.1 µM)
Method in brief: (§1)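 One day after seeding in 1536-well plates, lung cancer cell lines were dosed by pin tool. Dosing was either single-drug or a fixed anchor-drug dose plus five library-drug doses (not always all listed) in √10 steps. After 5 days, nuclei were stained in one fix-and-stain step and counted on 4× images, and relative viability is the nuclei count of treated wells over that of vehicle wells, given as the median of duplicate plates.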

NVP-TAE684 + OSI-027 = compound: COc1cc(N2CCC(N3CCN(C)CC3)CC2)ccc1Nc1ncc(Cl)c(Nc2ccccc2S(=O)(=O)C(C)C)n1 [NVP-TAE684] + COc1cccc2cc(-c3nc([C@H]4CC[C@H](C(=O)O)CC4)n4ncnc(N)c34)[nH]c12 [OSI-027] (partner 0.5 µM)
Method in brief: as §1

Vandetanib + Luminespib = compound: COc1cc2/c(=N/c3ccc(Br)cc3F)nc[nH]c2cc1OCC1CCN(C)CC1 [Vandetanib] + CCNC(=O)c1noc(-c2cc(C(C)C)c(O)cc2O)c1-c1ccc(CN2CCOCC2)cc1 [Luminespib] (partner 0.01 µM)
Method in brief: as §1

Vandetanib + Alpelisib = compound: COc1cc2/c(=N/c3ccc(Br)cc3F)nc[nH]c2cc1OCC1CCN(C)CC1 [Vandetanib] + Cc1nc(NC(=O)N2CCC[C@H]2C(N)=O)sc1-c1ccnc(C(C)(C)C(F)(F)F)c1 [Alpelisib] (partner 2 µM)
Method in brief: as §1

Cell Line	relative viability (CUDC-101 + Tozasertib; first compound 0.01 µM)	relative viability (CUDC-101 + Tozasertib; first compound 0.03162 µM)	relative viability (CUDC-101 + Tozasertib; first compound 0.1 µM)	relative viability (CUDC-101 + Tozasertib; first compound 0.3162 µM)	relative viability (CUDC-101 + Tozasertib; first compound 1 µM)	relative viability (NVP-TAE684 + OSI-027; first compound 0.2 µM)	relative viability (NVP-TAE684 + OSI-027; first compound 0.6325 µM)	relative viability (NVP-TAE684 + OSI-027; first compound 2 µM)	relative viability (Vandetanib + Luminespib; first compound 0.02 µM)	relative viability (Vandetanib + Luminespib; first compound 0.06325 µM)	relative viability (Vandetanib + Luminespib; first compound 0.2 µM)	relative viability (Vandetanib + Luminespib; first compound 0.6325 µM)	relative viability (Vandetanib + Luminespib; first compound 2 µM)	relative viability (Vandetanib + Alpelisib; first compound 0.02 µM)	relative viability (Vandetanib + Alpelisib; first compound 0.06325 µM)	relative viability (Vandetanib + Alpelisib; first compound 0.2 µM)	relative viability (Vandetanib + Alpelisib; first compound 0.6325 µM)	relative viability (Vandetanib + Alpelisib; first compound 2 µM)
NCI-H1395	0.809	0.717	0.747	0.744	0.627	0.712	0.482	0.567	0.715	0.539	0.729	0.6	0.879	1.03	1.28	1.22	1.04	0.998
NCI-H650	0.844	0.733	0.639	0.599	0.369	0.441	0.458	0.332	0.843	0.667		0.992	0.766	1.13	0.998	1.08	1.04	0.905
NCI-H1437	0.41	0.332	0.41	0.429	0.361	0.79		0.203	1.12	1.09	0.255	1.21	1.06	0.922	0.965	0.94	1	0.902
NCI-H661	0.356	0.331	0.362	0.342	0.248	0.717	0.821	0.585	0.912	0.914	0.869	0.934	0.978	0.602	0.565	0.604	0.441	0.582
HCC-44	0.795	0.899	0.999	0.917	0.7	0.525	0.428	0.218	1.01	0.988	1.13	1.2	1.01	0.799	0.812	0.999	0.807	0.762
NCI-H1355	0.518	0.539	0.5	0.544	0.384	0.423	0.325	0.273	0.618	0.731	0.838	0.685	0.698	0.811	0.772	0.466	0.958	0.822
NCI-H1993	0.592	0.517	0.624	0.53	0.502	0.494	0.466	0.593	0.951	0.785	0.538	0.838	0.721	0.668	0.706	0.648	0.582	0.703
NCI-H1734	0.256	0.257	0.23	0.216	0.202	0.679	0.518	0.387	0.205	0.204	0.135	0.187	0.229	0.673	0.684	0.737	0.756	0.678
SK-MES-1	0.976	0.945	0.942	0.809	0.502	0.447	0.529	0.352	0.788	0.506	0.758	0.594	0.388	0.913	0.929	0.86	0.851	0.646
COR-L 105	0.266	0.353	0.342	0.27	0.311	0.636	0.441	0.268	0.643	0.694	0.275	0.854	0.604	1.04	0.864	0.998	0.932	0.425
EMC-BAC-2	0.312	0.208	0.251	0.209	0.199	0.364	0.344	0.324	1.15	1.11	0.216	1.27	1.07	0.737	0.742	0.472	0.712	0.717
NCI-H1915	0.437	0.458	0.429	0.357	0.288	0.678	0.668	0.611	0.744	0.808	0.766	0.766	0.733	0.964	1.05	1.04	1.08	1.05
NCI-H358	0.103	0.117	0.127	0.101	0.114	0.718	0.616	0.15	0.336	0.471	0.461	0.218	0.239	0.741	0.733	0.175	0.533	0.385
CAL-12T	0.409	0.278	0.318	0.344	0.362	0.538	0.372	0.158	0.367	0.461	0.183	0.307	0.232	0.993	0.956	1.44	1.26	0.73
NCI-H2085	0.708	0.786	0.882	0.726	0.705	0.777	0.739	0.57	0.451	0.384	0.269	0.478	0.398	0.98	0.901	0.873	0.869	0.936
LCLC-97TM1	0.197	0.357	0.152	0.195	0.104	0.52	0.473	0.14	0.691	0.787	0.749	0.721	0.778	0.223	0.243	0.204	0.22	0.209
ABC-1	0.139	0.186	0.189	0.166	0.128	0.393	0.419	0.179	0.673	0.616	0.401	1.2	0.594	1.01	0.787	0.95	1.12	0.827
NCI-H596	0.632	0.716	0.871	0.917	0.819	0.903	0.689	0.509	0.915	0.89	0.81	1.02	0.771	0.515	0.518	0.618	0.593	0.453

Cell Line	relative viability (CUDC-101 + Tozasertib; first compound 0.01 µM)	relative viability (CUDC-101 + Tozasertib; first compound 0.03162 µM)	relative viability (CUDC-101 + Tozasertib; first compound 0.1 µM)	relative viability (CUDC-101 + Tozasertib; first compound 0.3162 µM)	relative viability (CUDC-101 + Tozasertib; first compound 1 µM)	relative viability (NVP-TAE684 + OSI-027; first compound 0.2 µM)	relative viability (NVP-TAE684 + OSI-027; first compound 0.6325 µM)	relative viability (NVP-TAE684 + OSI-027; first compound 2 µM)	relative viability (Vandetanib + Luminespib; first compound 0.02 µM)	relative viability (Vandetanib + Luminespib; first compound 0.06325 µM)	relative viability (Vandetanib + Luminespib; first compound 0.2 µM)	relative viability (Vandetanib + Luminespib; first compound 0.6325 µM)	relative viability (Vandetanib + Luminespib; first compound 2 µM)	relative viability (Vandetanib + Alpelisib; first compound 0.02 µM)	relative viability (Vandetanib + Alpelisib; first compound 0.06325 µM)	relative viability (Vandetanib + Alpelisib; first compound 0.2 µM)	relative viability (Vandetanib + Alpelisib; first compound 0.6325 µM)	relative viability (Vandetanib + Alpelisib; first compound 2 µM)
NCI-H2228	0.255	0.237	0.263	0.317	0.194	0.247	0.137	0.16	0.153	0.176	0.116	0.143	0.116	0.75	0.587		0.712	0.624
PC-14	0.656	0.544	0.391	0.528	0.115	0.699	0.644	0.185	0.234	0.152	0.184	0.13	0.131	0.922	0.846	0.911	0.447	0.182
H3255	0.649	0.591		0.549	0.135	0.531	0.602	0.4	0.982	0.795	0.829	0.728	0.501	0.681	0.634	0.602	0.335	0.119
NCI-H441	0.536	0.683	0.645	0.599	0.435	0.581	0.626	0.379	0.376	0.392	0.208	0.409	0.45	0.795	0.535	0.896	0.848	0.728
LK-2	0.149	0.222	0.185	0.195	0.139	0.178	0.17	0.168	0.189	0.163	0.235	0.156	0.214	0.951	1.04	1.11	1.16	1.11
SW 1573	0.211	0.182	0.173	0.173	0.131	0.741	0.455	0.226	0.383	0.227	0.415	0.24	0.18	0.75	0.726	0.753	0.969	0.743
LU99A	0.273	0.269	0.242	0.277	0.273	0.319	0.265	0.239	0.231	0.233	0.273	0.255	0.256	0.52	0.446	0.511	0.414	0.596
NCI-H322M	0.477	0.476	0.45	0.413	0.339	0.426	0.469	0.336	0.805	0.8	0.889	0.834	0.504	0.772	0.746	0.777	0.709	0.866
COR-L23	0.245	0.202	0.208	0.218	0.159	0.818	0.804	0.316	0.629	0.653	0.747	0.7	0.685	0.701	0.528	0.114	0.773	0.902
NCI-H1793	0.321	0.237	0.325	0.293	0.375	0.267	0.274	0.204	0.189	0.14	0.159	0.209	0.166	0.65	0.635	0.623	0.756	0.512
HARA	0.116	0.108	0.101	0.0938	0.0704	0.538	0.351	0.281	0.814	0.561	0.074	0.9	0.512	0.812	0.76	0.861	0.821	0.537
LXF-289	0.168	0.184	0.219	0.211	0.143	0.798	0.808	0.317	0.626	0.627	0.744	0.718	0.624	1.05	1	1.02	1.03	1.04
201T	0.927	0.899	0.876	0.69	0.536	0.762	0.732	0.474	1.03	1.05	1.01	0.99	0.974	1.08	0.959	0.985	0.977	0.995
LCLC-103H	0.54	0.494	0.485	0.418	0.322	0.445	0.467	0.372	0.922	0.979	0.906	0.916	0.912	0.923	0.898	0.983	0.972	0.943
NCI-H520	0.443	0.434	0.449	0.401	0.304	0.281	0.287	0.199	0.206	0.218	0.222	0.253	0.209	0.832	0.924	1.04	0.868	0.921
RERF-LC-KJ	0.516	0.505	0.476	0.442	0.371	0.514	0.448	0.306	1.1	1.21	1.29	1.14	1.12	0.82	0.694	0.833	0.774	0.678
NCI-H1975	0.741	0.717	0.843	0.837	0.701	0.732	0.594	0.341	0.347	0.27	0.224	0.173	0.236	0.583	0.573	0.597	0.63	0.477
